According to patent publication US4017607A:
≈ marks a conversion by molar mass, not a printed value. Like-named read-outs stand apart in the source and are kept apart here.

How the values were obtained:
[1] = tested on: Corynebacterium diphtheriae Type intermedius; assay: Minimum inhibitory concentration, serial dilution method; format: cell-based; conditions: Corynebacterium diphtheriae Type intermedius; 24 hours, 37° C; read-out: Minimum Inhibitory Concentration
[2] = tested on: Streptococcus hemolyticus D-90; assay: as above; format: cell-based; conditions: Streptococcus pyogenes, D90; Streptococcus hemolyticus D-90; 24 hours, 37° C; read-out: Minimum Inhibitory Concentration
[3] = tested on: Streptococcus hemolyticus Cook; assay: as above; format: cell-based; conditions: Streptococcus pyogenes; Streptococcus hemolyticus Cook; 24 hours, 37° C; read-out: Minimum Inhibitory Concentration
[4] = tested on: Bacillus subtilis PCI 219; assay: as above; format: cell-based; conditions: PCI219; Bacillus subtilis PCI 219; 24 hours, 37° C; read-out: Minimum Inhibitory Concentration
[5] = tested on: Staphylococcus aureus Terajima; assay: as above; format: cell-based; conditions: read-out: Minimum Inhibitory Concentration
[6] = tested on: Staphylococcus albus 1200A; assay: as above; format: cell-based; conditions: read-out: Minimum Inhibitory Concentration
[7] = tested on: Bacillus anthracis No. 119; assay: microbe, parasite or virus in culture; format: cell-based; conditions: NO.119, 24 h, read-out: Minimum Inhibitory Concentration
[8] = tested on: Diplococcus pneumoniae Type III; assay: Minimum inhibitory concentration, serial dilution method; format: cell-based; conditions: Streptococcus pneumoniae; Diplococcus pneumoniae Type III; 24 hours, 37° C; read-out: Minimum Inhibitory Concentration
[9] = tested on: Streptococcus pyogenes D-58; assay: as above; format: cell-based; conditions: D58; Streptococcus pyogenes D-58; 24 hours, 37° C; read-out: Minimum Inhibitory Concentration
[10] = tested on: Staphylococcus aureus 209P; conditions: 7th day, 10 mice per group
[11] = tested on: Bacillus subtilis ATCC 6633; assay: Minimum inhibitory concentration, serial dilution method; format: cell-based; conditions: read-out: Minimum Inhibitory Concentration
[12] = tested on: Staphylococcus aureus Smith; assay: as above; format: cell-based; conditions: read-out: Minimum Inhibitory Concentration
[13] = tested on: Corynebacterium diphtheriae Type gravis; assay: as above; format: cell-based; conditions: Corynebacterium diphtheriae Type gravis; 24 hours, 37° C; read-out: Minimum Inhibitory Concentration
[14] = tested on: Diplococcus pneumoniae Type I; assay: as above; format: cell-based; conditions: Streptococcus pneumoniae; Diplococcus pneumoniae Type I; 24 hours, 37° C; read-out: Minimum Inhibitory Concentration
[15] = tested on: Streptococcus faecalis ATCC 8043; assay: as above; format: cell-based; conditions: Enterococcus faecalis, ATCC8043; Streptococcus faecalis ATCC 8043; 24 hours, 37° C; read-out: Minimum Inhibitory Concentration
[16] = tested on: Staphylococcus aureus 209P; assay: Minimum inhibitory concentration, serial dilution method, Brain Heart Infusion broth; format: cell-based; conditions: read-out: Minimum Inhibitory Concentration
[17] = tested on: Sarcina lutea; assay: Minimum inhibitory concentration, serial dilution method; format: cell-based; conditions: Micrococcus luteus; Sarcina lutea; 24 hours, 37° C; read-out: Minimum Inhibitory Concentration
[18] = Staphylococcus aureus Terajima, 24 hours, 37° C
[19] = Staphylococcus albus 1200A, 24 hours, 37° C
[20] = ATCC6633, Bacillus subtilis ATCC 6633, 24 hours, 37° C
[21] = Staphylococcus aureus Smith, 24 hours, 37° C
[22] = Staphylococcus aureus 209P, 24 hours, 37° C
[23] = Bacillus subtilis, ATCC6633, 24 h
[24] = Staphylococcus aureus, 209P, 24 h

SMILES | MIC [1] | MIC [2] | MIC [3] | MIC [4] | MIC [5, 18] | MIC [6, 19] | MIC [7] | MIC [8] | MIC [9] | Rate of surviving mice in each group of mice ([10]; 100 mg/kg oral) | Rate of surviving mice in each group of mice ([10]; 200 mg/kg oral) | MIC [11, 20] | MIC [12, 21] | MIC [13] | MIC [14] | MIC [15] | MIC [16, 22] | MIC [17] | further results
CCC(=O)OC1CC(=O)OC(C)CC=CC=CC(OC(C)=O)C(C)CC(CC=O)C(OC2OC(C)C(OC3CC(C)(OC(=O)CC)C(OC(C)=O)C(C)O3)C(N(C)C)C2O)C1OC (stereo not drawn) [Compound No. 1] | 0.19 µg/mL (≈ 0.212 µM) | 0.78 µg/mL (≈ 0.869 µM) | 0.19 µg/mL (≈ 0.212 µM) | 0.78 µg/mL (≈ 0.869 µM) | 3.12 µg/mL (≈ 3.47 µM) | 1.56 µg/mL (≈ 1.74 µM) | 0.78 µg/mL (≈ 0.869 µM) | 0.09 µg/mL (≈ 0.1 µM) | 0.19 µg/mL (≈ 0.212 µM) | 6/10 | 10/10 | 1.56 µg/mL (≈ 1.74 µM) | 0.39 µg/mL (≈ 0.434 µM) | 0.19 µg/mL (≈ 0.212 µM) | 0.09 µg/mL (≈ 0.1 µM) | 0.78 µg/mL (≈ 0.869 µM) | 1.56 µg/mL (≈ 1.74 µM) | 0.09 µg/mL (≈ 0.1 µM) | –
CCC(=O)OC1CC(=O)OC(C)CC=CC=CC(OC(C)=O)C(C)CC(CC=O)C(OC2OC(C)C(OC3CC(C)(OC(C)=O)C(OC(=O)CC)C(C)O3)C(N(C)C)C2O)C1OC (stereo not drawn) [Compound No. 2] | 0.19 µg/mL (≈ 0.212 µM) | 0.78 µg/mL (≈ 0.869 µM) | 0.19 µg/mL (≈ 0.212 µM) | 0.78 µg/mL (≈ 0.869 µM) | 3.12 µg/mL (≈ 3.47 µM) | 1.56 µg/mL (≈ 1.74 µM) | 0.78 µg/mL (≈ 0.869 µM) | 0.09 µg/mL (≈ 0.1 µM) | 0.19 µg/mL (≈ 0.212 µM) | 8/10 | 10/10 | 1.56 µg/mL (≈ 1.74 µM) | 0.39 µg/mL (≈ 0.434 µM) | 0.19 µg/mL (≈ 0.212 µM) | 0.09 µg/mL (≈ 0.1 µM) | 0.78 µg/mL (≈ 0.869 µM) | 1.56 µg/mL (≈ 1.74 µM) | 0.09 µg/mL (≈ 0.1 µM) | –
CCC(=O)OC1CC(=O)OC(C)CC=CC=CC(OC(C)=O)C(C)CC(CC=O)C(OC2OC(C)C(OC3CC(C)(OC(=O)CC)C(OC(=O)C(C)C)C(C)O3)C(N(C)C)C2O)C1OC (stereo not drawn) [Compound No. 3] | 0.19 µg/mL (≈ 0.205 µM) | 0.78 µg/mL (≈ 0.842 µM) | 1.9 µg/mL (≈ 2.05 µM) | 0.78 µg/mL (≈ 0.842 µM) | 3.12 µg/mL (≈ 3.37 µM) | – | 1.56 µg/mL (≈ 1.68 µM) | 0.09 µg/mL (≈ 0.0972 µM) | 0.19 µg/mL (≈ 0.205 µM) | 4/10 | 10/10 | – | 0.39 µg/mL (≈ 0.421 µM) | 0.19 µg/mL (≈ 0.205 µM) | 0.09 µg/mL (≈ 0.0972 µM) | 0.78 µg/mL (≈ 0.842 µM) | – | 0.09 µg/mL (≈ 0.0972 µM) | MIC ([6]; Staphylococcus, 1200A, 24 h): 1.56 µg/mL (≈ 1.68 µM); MIC [11, 23]: 1.56 µg/mL (≈ 1.68 µM); MIC [16, 24]: 1.56 µg/mL (≈ 1.68 µM)
CCC(=O)OC1CC(=O)OC(C)CC=CC=CC(OC(C)=O)C(C)CC(CC=O)C(OC2OC(C)C(OC3CC(C)(OC(=O)CC)C(OC(=O)CC(C)C)C(C)O3)C(N(C)C)C2O)C1OC (stereo not drawn) [Compound No. 4] | 0.19 µg/mL (≈ 0.202 µM) | 0.19 µg/mL (≈ 0.202 µM) | 0.39 µg/mL (≈ 0.415 µM) | 0.78 µg/mL (≈ 0.83 µM) | – | – | 1.56 µg/mL (≈ 1.66 µM) | 0.19 µg/mL (≈ 0.202 µM) | 0.19 µg/mL (≈ 0.202 µM) | 0/10 | 3/10 | – | – | 0.19 µg/mL (≈ 0.202 µM) | 0.39 µg/mL (≈ 0.415 µM) | 0.78 µg/mL (≈ 0.83 µM) | – | 0.09 µg/mL (≈ 0.0957 µM) | MIC ([5]; Staphylococcus aureus, 24 h): 1.56 µg/mL (≈ 1.66 µM); MIC ([6]; Staphylococcus, 1200A, 24 h): 1.56 µg/mL (≈ 1.66 µM); MIC [11, 23]: 1.56 µg/mL (≈ 1.66 µM); MIC ([12]; Staphylococcus aureus, 24 h): 1.56 µg/mL (≈ 1.66 µM); MIC [16, 24]: 1.56 µg/mL (≈ 1.66 µM)
CCC(=O)OC1C=CC=CCC(C)OC(=O)CC(OC(=O)CC)C(OC)C(OC2OC(C)C(OC3CC(C)(OC(=O)CC)C(OC(C)=O)C(C)O3)C(N(C)C)C2O)C(CC=O)CC1C (stereo not drawn) [Compound No. 5] | 0.19 µg/mL (≈ 0.208 µM) | 0.78 µg/mL (≈ 0.855 µM) | 0.39 µg/mL (≈ 0.428 µM) | 1.56 µg/mL (≈ 1.71 µM) | 3.12 µg/mL (≈ 3.42 µM) | 1.56 µg/mL (≈ 1.71 µM) | 0.78 µg/mL (≈ 0.855 µM) | 0.09 µg/mL (≈ 0.0987 µM) | 0.19 µg/mL (≈ 0.208 µM) | 4/10 | 8/10 | 1.56 µg/mL (≈ 1.71 µM) | 0.78 µg/mL (≈ 0.855 µM) | 0.19 µg/mL (≈ 0.208 µM) | 0.09 µg/mL (≈ 0.0987 µM) | 0.78 µg/mL (≈ 0.855 µM) | 1.56 µg/mL (≈ 1.71 µM) | 0.09 µg/mL (≈ 0.0987 µM) | –
CCC(=O)OC1CC(=O)OC(C)CC=CC=CC(OC(C)=O)C(C)CC(CC=O)C(OC2OC(C)C(OC3CC(C)(OC(=O)CC)C(OC(=O)CC)C(C)O3)C(N(C)C)C2O)C1OC (stereo not drawn) [Compound No. 6] | 0.19 µg/mL (≈ 0.208 µM) | 0.78 µg/mL (≈ 0.855 µM) | 0.19 µg/mL (≈ 0.208 µM) | 0.78 µg/mL (≈ 0.855 µM) | 3.12 µg/mL (≈ 3.42 µM) | 1.56 µg/mL (≈ 1.71 µM) | 0.78 µg/mL (≈ 0.855 µM) | 0.09 µg/mL (≈ 0.0987 µM) | 0.19 µg/mL (≈ 0.208 µM) | 6/10 | 10/10 | 1.56 µg/mL (≈ 1.71 µM) | 0.39 µg/mL (≈ 0.428 µM) | 0.19 µg/mL (≈ 0.208 µM) | 0.09 µg/mL (≈ 0.0987 µM) | 0.78 µg/mL (≈ 0.855 µM) | 1.56 µg/mL (≈ 1.71 µM) | 0.09 µg/mL (≈ 0.0987 µM) | –
CCC(=O)OC1C=CC=CCC(C)OC(=O)CC(OC(=O)CC)C(OC)C(OC2OC(C)C(OC3CC(C)(OC(=O)CC)C(OC(=O)CC)C(C)O3)C(N(C)C)C2O)C(CC=O)CC1C (stereo not drawn) [Compound No. 7] | 0.19 µg/mL (≈ 0.205 µM) | 1.56 µg/mL (≈ 1.68 µM) | 0.19 µg/mL (≈ 0.205 µM) | 0.78 µg/mL (≈ 0.842 µM) | 1.56 µg/mL (≈ 1.68 µM) | 1.56 µg/mL (≈ 1.68 µM) | 0.78 µg/mL (≈ 0.842 µM) | 0.09 µg/mL (≈ 0.0972 µM) | 0.09 µg/mL (≈ 0.0972 µM) | 5/10 | 10/10 | 1.56 µg/mL (≈ 1.68 µM) | 0.78 µg/mL (≈ 0.842 µM) | 0.19 µg/mL (≈ 0.205 µM) | 0.19 µg/mL (≈ 0.205 µM) | 0.78 µg/mL (≈ 0.842 µM) | 0.78 µg/mL (≈ 0.842 µM) | 0.09 µg/mL (≈ 0.0972 µM) | –
